Experimental findings from patent US12410160B2 (Gilead Sciences, Inc., priority 2021, dated 2025) are described below.

One may read the pIC50 as the negative decadic logarithm of the IC50, by convention in mol/L. A lower pIC50 goes with a high IC50.

pIC50: −log10 of the molar value.

One assay has as its target human KHK-C (Homo sapiens (Human), UniProt P50053). Kind of assay: KHK Biochemical Assay (IC50), ADP-Glo, KHK-C. The settings on record: ADP-Glo; average of at least two separate assays. The gist of the method: (§1)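 His-tagged enzyme expressed in BL21 (DE3), Ni-NTA purified. Compounds, serially diluted 1:3 in DMSO, pre-incubated 30 min with enzyme in 50 mM Hepes pH 7.4, 140 mM KCl, 5 mM MgCl2, 0.01% Triton-X, then ATP and fructose added; 4 h at room temperature. ADP formation read by ADP-Glo luminescence.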
Background: ADP-Glo turns the ADP formed in a reaction into a luminescent signal.

For another assay, the target named is human KHK-A (Homo sapiens (Human), UniProt P50053). Kind of assay: KHK Biochemical Assay (IC50), ADP-Glo, KHK-A. The settings on record: ADP-Glo; average of at least two separate assays. A digest of the protocol: as §1
Chain of human KHK-A (P50053 other isoform, or with tags, fused parts or gaps): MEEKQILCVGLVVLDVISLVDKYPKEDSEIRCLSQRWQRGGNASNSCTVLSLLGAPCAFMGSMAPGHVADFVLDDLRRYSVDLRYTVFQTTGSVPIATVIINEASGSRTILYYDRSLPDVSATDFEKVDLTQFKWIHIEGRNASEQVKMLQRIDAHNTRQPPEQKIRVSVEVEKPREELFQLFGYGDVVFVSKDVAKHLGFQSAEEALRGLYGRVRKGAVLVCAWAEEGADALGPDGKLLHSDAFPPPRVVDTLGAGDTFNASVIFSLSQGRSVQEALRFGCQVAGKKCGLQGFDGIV

Chain of human KHK-C (P50053 whole entry): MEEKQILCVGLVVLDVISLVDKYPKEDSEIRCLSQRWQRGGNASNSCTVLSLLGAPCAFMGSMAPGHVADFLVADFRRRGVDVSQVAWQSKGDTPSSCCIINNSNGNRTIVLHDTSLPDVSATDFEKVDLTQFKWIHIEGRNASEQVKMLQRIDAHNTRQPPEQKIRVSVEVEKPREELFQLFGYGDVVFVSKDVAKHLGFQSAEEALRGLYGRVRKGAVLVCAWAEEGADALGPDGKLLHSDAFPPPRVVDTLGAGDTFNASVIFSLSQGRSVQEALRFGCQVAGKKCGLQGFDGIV

`C[C@H]1CCN1c1nc2c(c(-c3ccccc3O)n1)CCC2` [Example 260, 2-[2-[(2S)-2-methylazetidin-1-yl]-6,7-dihydro-5H-cyclopenta[d]pyrimidin-4-yl]phenol]: the pIC50 against human KHK-C was 6.20; on human KHK-A it was 6.13.
With `C[C@H]1CCN1c1nc2c(c(-c3cccc(O)c3)n1)CCC2` [Example 261, 3-[2-[(2S)-2-methylazetidin-1-yl]-6,7-dihydro-5H-cyclopenta[d]pyrimidin-4-yl]phenol], the pIC50 is 6.82 on human KHK-C and 6.87 on human KHK-A.
For `C[C@H]1CCN1c1nc2c(c(-c3ccc(O)cc3)n1)CCC2` [Example 262, 4-[2-[(2S)-2-methylazetidin-1-yl]-6,7-dihydro-5H-cyclopenta[d]pyrimidin-4-yl]phenol], in that order: 6.85 and 6.74.
`C[C@H]1CCN1c1nc2c(c(-c3ccc4c(c3)NC(=O)C4(C)C)n1)CCC2` [Example 264, 3,3-dimethyl-6-[2-[(2S)-2-methylazetidin-1-yl]-6,7-dihydro-5H-cyclopenta[d]pyrimidin-4-yl]indolin-2-one]: the figures for the pIC50 against human KHK-C and against human KHK-A were 6.19 and 6.12, respectively.
With `C[C@H]1CCN1c1nc(-c2ccns2)c2c(n1)C1CC1C2` (stereo partly drawn) [Example 273, 5-(2-((S)-2-methylazetidin-1-yl)-5,5a,6,6a-tetrahydrocyclopropa[4,5]cyclopenta[1,241]pyrimidin-4-yl)isothiazole], the values for the pIC50 at human KHK-C and at human KHK-A were 6.27 and 6.36, respectively.
The corresponding values for `C[C@H]1CCN1c1nc2c(c(-c3cccc(-c4ccn[nH]4)c3)n1)CCC2` [Example 279, (S)-4-(3-(1H-pyrazol-5-yl)phenyl)-2-(2-methylazetidin-1-yl)-6,7-dihydro-5H-cyclopenta[d]pyrimidine] are 6.70 and 6.80.
For `CNC(=O)c1ccc(-c2nc(N3CC[C@@H]3C)nc3c2CCC3)cn1` [Example 280, (S)—N-methyl-5-(2-(2-methylazetidin-1-yl)-6,7-dihydro-5H-cyclopenta[d]pyrimidin-4-yl)picolinamide], in that order: 6.73 and 6.91.
The corresponding values for `C[C@H]1CCN1c1nc2c(c(-c3ccnc(NCCO)c3)n1)CCC2` [Example 282] are 7.32 and 7.37.
As to `C[C@H]1[C@H](O)CN1c1nc2c(c(-c3cccc(S(N)(=O)=O)c3)n1)CCOC2` [Example 286], the pIC50 against human KHK-C was 6.12; against human KHK-A, 6.14.
Take `C[C@H]1CCN1c1nc2c(c(-c3ccc(N4CCOCC4)nc3)n1)CCC2` [Example 291, (S)-4-(5-(2-(2-methylazetidin-1-yl)-6,7-dihydro-5H-cyclopenta[d]pyrimidin-4-yl)pyridin-2-yl)morpholine]: the pIC50 against human KHK-C was 7.01; against human KHK-A, 6.85.
In the case of `CNC(=O)c1ccc(-c2nc(N3CC[C@@H]3C)nc3c2CCC3)cc1` [Example 292, (S)—N-methyl-4-(2-(2-methylazetidin-1-yl)-6,7-dihydro-5H-cyclopenta[d]pyrimidin-4-yl)benzamide], the pIC50 was 7.05 at human KHK-C and 7.18 against human KHK-A.
Consider `C[C@H]1CCN1c1nc2c(c(-c3ccc(C(=O)N(C)C)cc3)n1)CCC2` [Example 293, (S)—N,N-dimethyl-4-(2-(2-methylazetidin-1-yl)-6,7-dihydro-5H-cyclopenta[d]pyrimidin-4-yl)benzamide], for which the pIC50 against human KHK-C was 6.70; against human KHK-A it was 6.82.
For `C[C@H]1CCN1c1nc2c(c(-c3ccc(C4(NC(=O)OC(C)(C)C)CC4)cc3)n1)CCC2` [Example 294, (S)-tert-butyl (1-(4-(2-(2-methylazetidin-1-yl)-6,7-dihydro-5H-cyclopenta[d]pyrimidin-4-yl)phenyl)cyclopropyl)carbamate], in that order: 5.47 and 5.41.
For the compound `C[C@H]1CCN1c1nc2c(c(-c3ccc(C(=O)Nc4ccccc4)cc3)n1)CCC2` [Example 296, (S)-4-(2-(2-methylazetidin-1-yl)-6,7-dihydro-5H-cyclopenta[d]pyrimidin-4-yl)-N-phenylbenzamide], the pIC50 against human KHK-C is 5.52; at human KHK-A, 5.68.
As for `C[C@H]1CCN1c1nc2c(c(-c3cccc(C(=O)Nc4ccccc4)c3)n1)CCC2` [Example 297, (S)-3-(2-(2-methylazetidin-1-yl)-6,7-dihydro-5H-cyclopenta[d]pyrimidin-4-yl)-N-phenylbenzamide], the figures for the pIC50 at human KHK-C and against human KHK-A were 5.55 and 6.07, respectively.
For `C[C@H]1CCN1c1nc2c(c(-c3cc(C(N)=O)cc([N+](=O)[O-])c3)n1)CCC2` [Example 298, (S)-3-(2-(2-methylazetidin-1-yl)-6,7-dihydro-5H-cyclopenta[d]pyrimidin-4-yl)-5-nitrobenzamide], in that order: 6.61 and 6.43.
In the case of `C[C@H]1CCN1c1nc2c(c(-c3cc(N)cc(C(N)=O)c3)n1)CCC2` [Example 299, (S)-3-amino-5-(2-(2-methylazetidin-1-yl)-6,7-dihydro-5H-cyclopenta[d]pyrimidin-4-yl)benzamide], the pIC50 was 7.34 against human KHK-C and 7.33 against human KHK-A.
Regarding `C[C@H]1CCN1c1nc2c(c(-c3cc(NS(C)(=O)=O)cc(C(N)=O)c3)n1)CCC2` [Example 300, (S)-3-(2-(2-methylazetidin-1-yl)-6,7-dihydro-5H-cyclopenta[d]pyrimidin-4-yl)-5-(methylsulfonamido)benzamide], the pIC50 is 7.47 against human KHK-C and 7.37 against human KHK-A.
The corresponding values for `C[C@H]1[C@H](O)CN1c1nc2c(c(-c3ccc(C4(N)CC4)cc3)n1)CCC2` [Example 301, (2S,3R)-1-(4-(4-(1-aminocyclopropyl)phenyl)-6,7-dihydro-5H-cyclopenta[d]pyrimidin-2-yl)-2-methylazetidin-3-ol] are 8.43 and 8.00.
The corresponding values for `C[C@H]1CCN1c1nc2c(c(-c3ccc(C4(N5CCN(C)CC5)CC4)cc3)n1)CCC2` [Example 302, (S)-2-(2-methylazetidin-1-yl)-4-(4-(1-(4-methylpiperazin-1-yl)cyclopropyl)phenyl)-6,7-dihydro-5H-cyclopenta[d]pyrimidine] are 6.07 and 6.20.
Take `C[C@H]1CCN1c1nc2c(c(-c3ccc(C4(N5CCOCC5)CC4)cc3)n1)CCC2` [Example 304, (S)-4-(1-(4-(2-(2-methylazetidin-1-yl)-6,7-dihydro-5H-cyclopenta[d]pyrimidin-4-yl)phenyl)cyclopropyl)morpholine]: the pIC50 against human KHK-C was 6.10; on human KHK-A, 6.01.
The corresponding values for `Cc1ncc(-c2nc(N3CC[C@@H]3C)nc3c2CCC3)o1` [Example 325, 2-methyl-5-[2-[(2S)-2-methylazetidin-1-yl]-6,7-dihydro-5H-cyclopenta[d]pyrimidin-4-yl]oxazole] are 6.35 and 6.36.
For `Cc1cc(-c2nc(N3CC[C@@H]3C)nc3c2CCC3)on1` [Example 326, 3-methyl-5-[2-[(2S)-2-methylazetidin-1-yl]-6,7-dihydro-5H-cyclopenta[d]pyrimidin-4-yl]isoxazole], in that order: 6.64 and 6.64.
On to `Cc1cc(-c2nc(N3CC[C@@H]3C)nc3c2CCC3)sn1` [Example 327, 3-methyl-5-[2-[(2S)-2-methylazetidin-1-yl]-6,7-dihydro-5H-cyclopenta[d]pyrimidin-4-yl]isothiazole], for which the figures for the pIC50 on human KHK-C and on human KHK-A were 7.42 and 7.01, respectively.
`C[C@H]1CCN1c1nc2c(c(-c3cccc(CNC(=O)OC(C)(C)C)c3)n1)CCC2` [Example 328, tert-butyl N-[[3-[2-[(2S)-2-methylazetidin-1-yl]-6,7-dihydro-5H-cyclopenta[d]pyrimidin-4-yl]phenyl]methyl]carbamate]: the pIC50 is 6.30 against human KHK-C and 6.22 at human KHK-A.
In the case of `C[C@H]1CCN1c1nc2c(c(-c3ccccc3)n1)CC1(CC1)C2` [Example 335, 2-[(2S)-2-methylazetidin-1-yl]-4-phenyl-spiro[5,7-dihydrocyclopenta[d]pyrimidine-6,1′-cyclopropane]], the pIC50 against human KHK-C and against human KHK-A was under 4.30 throughout.
With `CC1CCc2c(-c3ccccc3)nc(N3CC[C@@H]3C)nc21` (stereo partly drawn) [Example 336, 7-methyl-2-[(2S)-2-methylazetidin-1-yl]-4-phenyl-6,7-dihydro-5H-cyclopenta[d]pyrimidine], the pIC50 was 4.70 on human KHK-C and 4.88 at human KHK-A.
On to `CC1Cc2nc(N3CC[C@@H]3C)nc(-c3ccccc3)c2C1` (stereo partly drawn) [Example 337, 6-methyl-2-[(2S)-2-methylazetidin-1-yl]-4-phenyl-6,7-dihydro-5H-cyclopenta[d]pyrimidine], for which the pIC50 at human KHK-C is 5.29; at human KHK-A, 5.53.
The corresponding values for `C[C@H]1CCN1c1nc(-c2ccccc2)c2c(n1)C1(CC2)CC1` [Example 338, 2-[(2S)-2-methylazetidin-1-yl]-4-phenyl-spiro[5,6-dihydrocyclopenta[d]pyrimidine-7,1′-cyclopropane]] are under 4.30 and under 4.30.
For `CC1CCc2nc(N3CC[C@@H]3C)nc(-c3ccccc3)c21` (stereo partly drawn) [Example 339, 5-methyl-2-[(2S)-2-methylazetidin-1-yl]-4-phenyl-6,7-dihydro-5H-cyclopenta[d]pyrimidine], in that order: 5.65 and 5.72.
Turning to `Cc1cnc(-c2nc(N3CC[C@@H]3C)nc3c2CCC3)s1` [Example 342, 5-methyl-2-[2-[(2S)-2-methylazetidin-1-yl]-6,7-dihydro-5H-cyclopenta[d]pyrimidin-4-yl]thiazole], the pIC50 at human KHK-C and against human KHK-A was 6.97 each time.
With `C[C@H]1CCN1c1nc2c(c(-c3ccnnc3)n1)CCC2` [Example 343, 2-[(2S)-2-methylazetidin-1-yl]-4-pyridazin-4-yl-6,7-dihydro-5H-cyclopenta[d]pyrimidine], the negative logarithm of the IC50 (pIC50) is 6.39 at human KHK-C and 6.45 on human KHK-A.
